Peptide text beside a SMILES is read from it.
Experiments:
Format in all cases: functional, cell-based
SF-268 = assay: Cytotoxicity against human SF268 cells after 72 hrs by sulforhodamine B assay; settings: SF-268, 72 h
NCI-H460 = assay: Cytotoxicity against human NCI-H460 cells after 72 hrs by sulforhodamine B assay; settings: NCI-H460, 72 h
MCF7 = assay: Cytotoxicity against human MCF7 cells after 72 hrs by sulforhodamine B assay; settings: MCF7, 72 h

CC(C)C[C@@H]1NC(=O)[C@H](C(C)C)NC(=O)[C@H](Cc2ccc(O)cc2)N(C)C(=O)[C@H](Cc2ccccc2)NC(=O)CN(C)C(=O)[C@@H]2CCCN2C(=O)[C@@H](Cc2ccc(O)cc2)N(C)C1=O [Cordyheptapeptide D]
IC50 (SF-268): 45.6 µM
IC50 (NCI-H460): > 100 µM
IC50 (MCF7): 82.7 µM

CC(C)C[C@@H]1NC(=O)[C@H](C(C)C)NC(=O)[C@H](Cc2ccc(O)cc2)N(C)C(=O)[C@H](Cc2ccccc2)NC(=O)CN(C)C(=O)[C@@H]2CCCN2C(=O)[C@@H](Cc2ccccc2)N(C)C1=O [Cordyheptapeptide C] (HELM PEPTIDE1{F.[meY].V.L.[CN([C@H](Cc1ccccc1)C(=O)[*:2])[*:1]].P.[Sar]}$PEPTIDE1,PEPTIDE1,1:R1-7:R2$$$V2.0)
IC50 (SF-268): 3.7 µM
IC50 (NCI-H460): 11.6 µM
IC50 (MCF7): 3 µM

CC[C@@H](C)[C@@H]1NC(=O)[C@H](Cc2ccc(O)cc2)N(C)C(=O)[C@H](Cc2ccccc2)NC(=O)CN(C)C(=O)[C@@H]2CCCN2C(=O)[C@@H](Cc2ccc(O)cc2)N(C)C(=O)[C@H](CC(C)C)NC1=O [Cordyheptapeptide E]
IC50 (SF-268): 3.2 µM
IC50 (NCI-H460): 4.5 µM
IC50 (MCF7): 2.7 µM

Reference: ChEMBL document CHEMBL2062458, “Cyclic heptapeptides, cordyheptapeptides C-E, from the marine-derived fungus Acremonium persicinum SCSIO 115 and their cytotoxic activities” (J Nat Prod, 2012)
